# Results taken from patent US12351804B2, “Production method for bifurcated lipid-linked oligonucleotide, and intermediate” (Shionogi & Co., Ltd., priority 2019, dated 2025).
# Assay: Stability of the amidite intermediate on storage (UPLC/HPLC analysis)
# Type: physicochemical
# Experimental: The following conditions were used for the analysis of compound 5.
# Mobile phase [A]: 60 mM ammonia-ammonium acetate-containing buffer solution (pH 8.0), Mobile phase [B]: acetonitrile
# Gradient: 15% solvent [B] was kept for 0.5 minutes, then linear gradient from 15% to 50% solvent [B] was performed in 2.5 minutes, linear gradient from 50% to 65% solvent [B] was performed in 9 minutes, linear gradient from 65% to 95% solvent [B] was performed in 3 minutes, and 95% solvent [B] was kept for 1 minute.
# Column: ACQUITY UPLC (registered trademark) BEH Phenyl (1.7 μm, i.d. 2.1×100 mm) (Waters)
# UV Detection wavelength: 295 nm
# The following conditions were used for the analysis of comparative compound.
# Mobile phase [A]: 10 mM ammonium formate-containing aqueous solution, Mobile phase [B]: methanol
# Gradient: 97% solvent [B] was kept for 20 minutes.
# Column: Triart (registered trademark) C8 (3 μm, i.d. 4.6×100 mm) (YMC)
# Detector: Corona CAD, Corona CAD detection conditions: 60 Hz, BCD polarity+, pressure 35±1 psi, total flow rate 1.53 mL/min
compound,measurement,setting,value
CCCCCCCCCCCCCCCCCCCC(=O)NCC(CNC(=O)CCCCCCCCCCCCCCCCCCC)OP(OCCC#N)N(C(C)C)C(C)C (centres unmarked) [Comparative compound],Stability (analysis value),"−20° C., after 7 months",33.8%
same,Stability (analysis value),"−20° C., after 71 days",42.0%
same,Stability (analysis value),"−20° C., initial",54.3%
same,Decomposition on storage,"−20° C., over time",unstable
CC(C)N(C(C)C)P(OCCC#N)OC(CN1C(=O)c2ccccc2C1=O)CN1C(=O)c2ccccc2C1=O (centres unmarked) [Compound 5],Decomposition on storage,40° C. for 50 days,No decomposition
same,Stability (analysis value),"40° C., after 7 days",99.6%
same,Stability (analysis value),"40° C., after 50 days",99.7%
same,Stability (analysis value),"40° C., initial",99.6%
